# Experimental data: patent publication US20060223884A1, “Compounds and compositions for use in the prevention and treatment of obesity and related syndromes” (priority 2005, published 2006)
# Like-named read-outs stand apart in the source and are kept apart here.
# Key:
# [1] = Oral Glucose Tolerance Test (OGTT) in DIO mice, 4-hydroxyisoleucine and Exendin-4 alone or in combination (Example 5); format: in vivo, C57BI/6 mice; conditions: single agent, 4-OH 50 mg/kg or Exendin-4 0.01 mg/kg, after 7, 14 and 21 days of treatment
# Description: (§1) Glycemic response was monitored by an Oral Glucose Tolerance Test (OGTT) performed on days 0, 7, 14, and 21 of treatment.
# (§2) A total of 56 animals were used in the study. The animals were distributed into 7 groups (5 treated, 1 normal diet control, and 1 high fat diet control group). Each group was composed of 8 animals. […] For the three weeks of treatment, the test agents were dissolved in sterile saline for injection (USP). 4-Hydroxyisoleucine was kept at 4° C. (administration to groups 3, 4, and 7) while a frozen aliquot of Exendin-4 was thawed each dosing day for administration to groups 5, 6, and 7. Control animals received sterile saline, twice daily (groups 1 and 2). […] Animals from groups 5 and 6 received sterile saline as the AM treatment, while the PM treatment consisted of 0.05 and 0.01 mg/kg of Exendin-4, respectively. For Group 7, the AM treatment consisted of 50 mg/kg 4-OH only, while the PM treatment consisted of 0.01 mg/kg of Exendin-4+50 mg/kg of 4-OH. All groups were treated by subcutaneous injection.
# On days 0, 7, 14, and 21, animals fasted for approximately 5 hours were challenged with an Oral Glucose Tolerance Test (OGTT) at 5 hours post-AM test agent administration. Whole blood glucose levels were monitored using a hand-held glucometer prior to OGTT and for up to 2 hours post-glucose challenge.
# [2] = format: in vivo
# Source text: The objective of this study was to evaluate the effect of chronic administration of 4-hydroxyisoleucine (4-OH, compound 14a) on food consumption and body weight gain of DIO-mice. Both parameters were monitored for 1 week prior to the commencement of treatment, then for the 77 days of treatment and for an additional 12 days post-treatment.
# C57BL/6 mice were received at 7-8 weeks of age and fed a high fat diet (60% of calories from fat) for several weeks. A total of 32 animals were used in the study. The animals were distributed into 4 groups (3 treated, 1 control group, all on high fat diet). Each group was composed of 8 animals. The mice were randomized according to body weight and basal glycemia values following a 5±0.5 hour fasting period.
# The test agent was dissolved in reverse osmosis water. 4-Hydroxyisoleucine was aliquoted and kept at 4° C. Control animals received reverse osmosis water twice daily (group 1). Mice from groups 2, 3 and 4 were treated twice daily with 4-hydroxyisoleucine (4-OH, compound 14a) at 100, 50, and 25 mg/kg, respectively. All groups were treated by oral gavage. Treatment commenced on Day 0 and ended on Day 77. Food consumption was measured daily and averaged on a weekly basis beginning one week before the start of treatment as shown in FIG. 15B. Similarly, food consumption was monitored during the treatment period and for 12 days after treatment was stopped as shown in FIGS. 15A and 15B.
# [3] = Prevention of weight gain in Wistar rats fed a high fat, high sucrose diet (Example 10); format: in vivo; conditions: Wistar rats on HFHS diet, 100 mg/kg twice daily oral
# Source text: The aim of this study was to evaluate the effect of chronic administration of 4-hydroxyisoleucine (4-OH, Compound 14a) on food consumption, tissue weight, and body weight gain of normal Wistar rats fed a high fat, high sucrose diet (HFHS).
# The animals were acclimated for 1 week and fed standard chow prior to the commencement of treatment, then for the 28 days of the treatment the animals were fed a high fat, high sucrose diet (HFHS). A total of 30 animals were used in the study. The animals were distributed into 3 groups each composed of 10 animals: 1 group fed HFHS with treatment, 1 untreated control group fed standard chow, and 1 untreated group fed HFHS. Animals were housed separately and food consumption was monitored daily.
# For the four weeks of treatment, the test compounds were dissolved in reverse osmosis water. 4-hydroxyisoleucine (4-OH) was aliquoted and kept at 4° C. Treated animals received twice daily oral administration of 4-OH at 100 mg/kg per dose. Control animals received water twice daily.
# [4] = Body weight of DIO mice, 4-hydroxyisoleucine and Rimonabant alone and in combination (Example 7); format: in vivo, C57BU6 mice; conditions: oral
# Description: C57BU6 mice were received at 7-8 weeks of age and fed a high fat diet (60% of calories from fat) for 8 weeks. Seven days prior to treatment, animals were randomized based on their body weight and fasted glycemia values into control and treated groups (n=8). The animals were treated by oral gavage twice daily with 4-OH (50 mg/kg of body weight; group 2), once daily in the afternoon with Rimonabant (0.1 mg/kg; group 3), and a combination of the two treatments (4-OH 50 mg/kg twice daily +Rimonabant 0.1 mg/kg once daily; group 4). The control group (group 1) received vehicle alone twice daily. After 3 weeks of treatment (day 22), the doses were increased as follows: 4-OH 100 mg/kg twice daily (group 2), Rimonabant 1 mg/kg once daily (group 3), and the combination (4-OH 100 mg/kg twice daily+Rimonabant 1 mg/kg once daily; group 4). The animals were treated for 1 week with these higher doses. Body weight of the mice was recorded every day for all groups from Day 6 to Day 28.
# [5] = Weight gain and epididymal fat of DIO-C57Bl/6 mice, 4-hydroxyisoleucine and Exendin-4 alone or in combination (Example 5); format: in vivo, C57BI/6 mice; conditions: s.c., 21 days
# Description: as §1, §2
# [6] = cited from earlier work
# [7] = Body weight gain in C57BU6 mice shifted to a high fat diet, analogs and isomers, 3 days (Example 9); format: in vivo; conditions: C57BU6 mice on high fat diet, 100 mg/kg twice daily oral gavage
# Description: C57BU6 mice were received at 6-7 weeks of age and fed a standard commercial chow for 1 week (acclimation period). The animals were randomized based on their body weight values, into control and treatment groups (n=6). Then, animals were shifted to a high fat diet (60% of calories from fat) and treated twice daily by oral gavage with 4-hydroxyisoleucine (4-OH, compound 14a) or different analogs and isomers of 4-OH at the dose of 100 mg per kg of body weight for 3 days. The control group (Control HFD) received vehicle (water) alone and a group was kept under standard chow (Control Lean). Body weight of the mice was recorded daily. Two different experiments were run and the effect on body weight gain of selected analogs and isomers according to the invention is presented in FIG. 22A (Experiment 1) and FIG. 22B (Experiment 2).
structure (smiles),measurement,setting,value
"C[C@@H]([C@H](C)O)[C@H](N)C(=O)O [compound 14a, (2S,3R,4S)-4-Hydroxyisoleucine]",glycemic levels following OGTT challenge,[1],consistently effective at reducing glycemic levels
same,effect on weight gain,"[2]; DIO mice, 100 mg/kg twice daily oral, Day 28 to Day 84",sustained and highly significant
same,tolerability of treatments,"[2]; DIO mice, 25, 50 and 100 mg/kg twice daily, oral gavage, 77 days",well-tolerated
same,weight gain,"[2]; DIO mice, 50 and 100 mg/kg twice daily oral, first three weeks of treatment",moderation of weight gain
same,food consumption,"[2]; DIO mice, during the first week of treatment, paralleling the reduction in body weight gain",slight decrease in food consumption
same,body weight gain and food consumption after cessation of treatment,"[2]; DIO mice, first week following cessation of treatment with 100 mg/kg",increase
same,epididymal and peri-renal adipose tissue,[3]; 28 days,reduction of epididymal and peri-renal adipose tissue
same,tolerability of treatment,[3]; 28 days,well tolerated
same,weight gain,[3]; 28 days,Moderation of weight gain
same,"muscle, brown fat, and organ weight",[3]; 28 days (data not shown),not affected
same,food consumption,"[3]; 28 days, could not account for the differences in weight gain",reduction in food consumption
same,body weight gain after 21 days (low dosage treatment),"[4]; 4-OH 50 mg/kg twice daily, Rimonabant 0.1 mg/kg once daily, alone or in combination",slight reduction of body weight gain
same,body weight after dose increase (day 22 to 28),"[4]; 4-OH 100 mg/kg twice daily, Rimonabant 1 mg/kg once daily, alone or in combination (combination compared to each compound separately)",immediately reduced the body weight
same,body weight gain,"[5]; 4-OH 50 mg/kg twice daily, Exendin-4 0.01 mg/kg (PM), alone or in combination",decrease in body weight gain
same,weight of epididymal fat,"[5]; 4-OH 100 mg/kg, Exendin-4 0.01 mg/kg, combination 4-OH 50 mg/kg + Exendin-4 0.01 mg/kg",reduction of the weight of epididymal fat
same,insulinotropic and insulin sensitizing activities,"[6]; Broca et al. 1999, 2000, 2004, WO 97/32577, WO 01/15689",insulinotropic and insulin sensitizing activities
same,antidyslipidemic activities,[6]; Narender et al. 2006,antidyslipidemic activities
same,"body weight as compared to pre-treatment values (FIG. 22B, one experiment)",[7],reduced body weight of the mice as compared to pre-treatment values
same,body weight gain induced by the high fat diet,[7],reduced body weight gain induced by the high fat diet
